Experimental data from PubChem BioAssay AID1919015 (Molecular Pharmacology Branch, DTP, NCI, 2023).
Where “and” joins values, the source holds several entries; their conditions need not be identical. Identical values can stand only once.

Tested on: OVCAR-5 complex spheroids with HUVEC/MSC, viability, % test/control
Assay: Anticancer human tumor OVCAR-5 cell line growth inhibition [AhR];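 also: spheroids exposed to compounds for 7 days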;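 as to viability, T/C: 100% = DMSO vehicle control wells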
Conditions: for viability, T/C: stronger effect = lower value
Excerpt: Multicellular complex tumor spheroid response to aryl hydrocarbon receptor antagonists in combination with a variety of drugs and investigational agents in selected tumor cell lines
The current study was undertaken to assess response to aryl hydrocarbon receptor antagonists in combination with standard-of-care drugs and investigational agents in solid tumor complex spheroid models. Complex spheroids include a stromal component modeled by human endothelial cells (HUVEC) and fibroblasts modeled by human mesenchymal stem cells (MSCs). The concentration ranges selected for each drug and investigational agent were based upon clinically achievable concentrations if the clinical Cmax of the agent was known.
Compounds. The drugs and investigational agents: BAY 2416964 (NSC825713), GNF351 (NSC835774), CH-223191 (NSC835775), CPI-455 (NSC825282), aza-TdCyd (NSC777586), decitabine (NSC127716), belinostat (NSC758774), entinostat (NSC756642), pevonedistat (NSC761192), tazemetostat (NSC777109), talazoparib (NSC765396), olaparib (NSC753686), selinexor (NSC780203), nedisertib (M3814, NSC802822), bortezomib (NSC756655), venetoclax (NSC766270), doxorubicin (NSC123127), elimusertib (BAY189344, NSC800525), ceralasertib (AZD6738, NSC777638), TAK-243 (NSC785004), alisertib (NSC759677), etoposide (NSC141540), topotecan (NSC609699), eribulin (NSC707389), gemcitabine (NSC613327), carboplatin (NSC241240), cisplatin (NSC119875), and SN-38 (NSC673596) were obtained from the National Cancer Institute (NCI) Developmental Therapeutics Program Chemical Repository (32). The FDA-approved anticancer drug set is available from the Developmental Therapeutics Program at https://dtp.cancer.gov/organization/dscb/obtaining/available plates.htm. […] The stock solutions were prepared in dimethyl sulfoxide (DMSO, Sigma-Aldrich, St. Louis, MO, cat. D2650), except for the platinum compounds which were prepared in saline (Quality Biological, Gaithersburg, MD, cat. 114-055-101), at 800-fold the tested concentration and stored at -70 degrees C prior to their use. All drugs and investigational agents were tested over a range starting from a high concentration at or near the clinical Cmax and decreasing in half-log increments. If the clinical Cmax for an agent had not been determined, the highest concentration tested was 10 microM (Table 1).
Cell Culture. All cells were maintained in an incubator at 37 degrees C and 5% CO2 with 95% humidity. The PDC lines were cultured according to standard operating procedures established by the NCI PDMR (https://pdmr.cancer.gov). Briefly, all PDCs were thawed and cultured in Matrigel-coated flasks prepared with a working solution of 1X Ham's F-12 nutrient mix, without supplementation (Invitrogen, Waltham, MA, cat. 11765054), 100 U/mL penicillin-streptomycin (Invitrogen, cat. 15140122), and 2.5% Matrigel (Corning Inc., Corning, NY, cat. 354248) for the first three passages. All PDCs were cultured in complete DMEM/F-12 media containing advanced DMEM/F-12 (Invitrogen, cat. 12634028), 4.9% defined fetal bovine serum, heat inactivated (HyClone Laboratories Inc., Logan, UT, cat. SH30070.03HI), 389 ng/mL hydrocortisone (Sigma-Aldrich, cat. H4001), 9.7 ng/mL human EGF recombinant protein (Invitrogen, cat. PHG0313), 23.4 microg/mL adenine (Sigma-Aldrich, cat. A2786), 97.3 U/mL penicillin-streptomycin (Invitrogen, cat. 15140122), 1.9 mM L-glutamine (Invitrogen, cat. 25030081), and 9.7 microM Y-27632 dihydrochloride (Tocris Bioscience, Bristol, United Kingdom, cat. 1254). The PDCs were cultured in complete DMEM/F12 media without 10 microM Y-27632 dihydrochloride for at least two passages prior to the screen. The established cell lines NCI-H1341 and […] were cultured in DMEM/F-12, HEPES (Invitrogen, cat. 11330032), 5% defined fetal bovine serum (HyClone Laboratories Inc., cat. SH30070.03), ITS premix universal culture supplement [insulin (5 microg/mL), transferrin (5 microg/mL), and selenious acid (5 ng/mL)] […]

Row | Structure (SMILES) | IC50 (curve of compound) | viability, T/C (compound 0.0316 µM) | viability, T/C (compound 0.1 µM) | viability, T/C (compound 0.316 µM) | viability, T/C (compound 1 µM) | viability, T/C (compound 3.16 µM) | viability, T/C (compound 10 µM) | further results
1 | CC(C)CC(NC(=O)C(Cc1ccccc1)NC(=O)c1cnccn1)B(O)O (stereo unspecified) | 64.9 nM and 51 nM and 23.1 nM | – | – | – | – | – | – | viability, T/C (compound 0.000949 µM): 99.2% and 101% and 95.8%; viability, T/C (compound 0.003 µM): 99.8% and 102% and 100%; viability, T/C (compound 0.00949 µM): 100% and 96.3% and 85.5%; viability, T/C (compound 0.03 µM): 78.9% and 69.3% and 39%; viability, T/C (compound 0.0949 µM): 36% and 27.6% and 18%; viability, T/C (compound 0.3 µM): 24.7% and 18.1% and 11.4%
2 | CC(C)c1c(-c2ccccc2)nc2c(C#N)c[nH]n2c1=O | > 10000 nM | 103% and 100% and 101% | 103% and 99.8% and 106% | 104% and 101% (2×) | 105% and 104% and 101% | 105% (2×) and 103% | 109% and 106% (2×) | –
3 | CC(CO)NC(=O)c1cc(-c2ccc(Cl)cc2)nn(-c2cnn(C)c2)c1=O (stereo unspecified) | – | – | 107% [middle of 20 runs] | 108% [middle of 21 runs] | 114% [middle of 21 runs] | 103% [middle of 19 runs] | 98.4% [middle of 19 runs] | IC50 (compound alone, run of 08/08/2022): > 10000 nM
4 | CC1(C)CCC(CN2CCN(c3ccc(C(=O)NS(=O)(=O)c4ccc(NCC5CCOCC5)c([N+](=O)[O-])c4)c(Oc4cnc5[nH]ccc5c4)c3)CC2)=C(c2ccc(Cl)cc2)C1 | > 10000 nM | 101% and 99.7% and 103% | 99.9% and 101% and 107% | 102% and 97.2% and 103% | 103% (2×) and 98.7% | 108% and 98.8% and 114% | 92% and 56.4% and 56% | –
5 | CC1COCCN1c1cc(-c2ccnn2C)c2ccnc(-c3ccn[nH]3)c2n1 (stereo unspecified) | 290 nM and 229 nM and 240 nM | 102% and 95.4% and 103% | 84.8% and 79.3% and 79.7% | 47.3% and 38.3% and 41.1% | 30.7% and 25.6% and 26.6% | – | – | viability, T/C (compound 0.00316 µM): 105% and 103% and 102%; viability, T/C (compound 0.01 µM): 103% and 101% and 105%
6 | CC1COCCN1c1cc(C2(S(C)(=N)=O)CC2)nc(-c2ccnc3[nH]ccc23)n1 (stereo unspecified) | 9160 nM and 6500 nM and 7400 nM | 101% and 102% and 99.5% | 101% (2×) and 99.1% | 104% and 102% and 96.8% | 100% and 97.1% and 98% | 89.4% and 71.8% and 75.2% | 46.7% and 37% and 41% | –
7 | CCN(c1cc(-c2ccc(CN3CCOCC3)cc2)cc(C(=O)NCc2c(C)cc(C)[nH]c2=O)c1C)C1CCOCC1 | > 3000 nM | – | – | – | – | – | – | viability, T/C (compound 0.00949 µM): 104% (2×) and 101%; viability, T/C (compound 0.03 µM): 105% and 98.5% and 106%; viability, T/C (compound 0.0949 µM): 99.6% and 99.7% and 103%; viability, T/C (compound 0.3 µM): 101% and 100% and 105%; viability, T/C (compound 0.949 µM): 99.6% and 96.8% and 104%; viability, T/C (compound 3 µM): 101% and 96.4% and 104%
8 | CC[C@@]1(O)C(=O)OCc2c1cc1n(c2=O)Cc2cc3c(CN(C)C)c(O)ccc3nc2-1 | > 100 nM and 23 nM and 75.9 nM | 57% and 37.1% and 61.3% | 50.6% and 40.1% and 46.5% | – | – | – | – | viability, T/C (compound 0.000316 µM): 102% and 99.2% and 104%; viability, T/C (compound 0.001 µM): 101% and 98.1% and 106%; viability, T/C (compound 0.00316 µM): 97.5% and 89.9% and 98.5%; viability, T/C (compound 0.01 µM): 88% and 79.8% and 89.2%
9 | CCc1c2c(nc3ccc(O)cc13)-c1cc3c(c(=O)n1C2)COC(=O)[C@]3(O)CC | 13 nM and 7.38 nM and 7.51 nM | – | – | – | – | – | – | viability, T/C (compound 0.000949 µM): 90.5% and 88.5% and 79.2%; viability, T/C (compound 0.003 µM): 69% and 69.4% and 60.1%; viability, T/C (compound 0.00949 µM): 46% and 36.1% and 40.2%; viability, T/C (compound 0.03 µM): 45.3% and 36.5% and 41.5%; viability, T/C (compound 0.0949 µM): 28.9% and 21.7% and 21.8%; viability, T/C (compound 0.3 µM): 12.1% and 8% and 9.04%
10 | COc1cc(C2c3cc4c(cc3C(OC3OC5COC(C)OC5C(O)C3O)C3COC(=O)C23)OCO4)cc(OC)c1O (stereo unspecified) | 3120 nM and 3790 nM and 2030 nM | 96.3% and 99.9% and 103% | 98.8% and 99.4% and 103% | 90.1% and 91.7% and 91.1% | 73.2% and 79.8% and 64.9% | 50% and 52.3% and 41.3% | 37.2% and 34.4% and 30.3% | –
11 | COc1cc(Nc2ncc3c(n2)-c2ccc(Cl)cc2C(c2c(F)cccc2OC)=NC3)ccc1C(=O)O | 2920 nM and 1770 nM and 1250 nM | 88% and 84.9% and 84.8% | 79.3% and 80.2% and 76.8% | 61.4% and 57.7% and 55.4% | 58.3% and 55.7% and 50.5% | 51.2% and 49.3% and 47% | 42.7% and 41.6% and 39.5% | –
